Test results published in the supplement of paper PMC13380429.

How the values were obtained:
Conditions in all cases: 72 h
U2OS [1] = assay: cell viability relative to DMSO; higher = less toxic
Vero E6 [2] = assay: as above
HepG2 [3] = assay: as above
Caco-2 [4] = assay: as above
Calu-3 [5] = assay: as above
U2OS [6] = assay: relative viability EC50 (midpoint between 100% and the lowest measured viability); higher = less toxic
Vero E6 [7] = assay: as above
HepG2 [8] = assay: as above
Caco-2 [9] = assay: as above
Calu-3 [10] = assay: as above
U2OS [11] = assay: drug sensitivity score (DSS) for viability; higher = more toxic; extreme values may be limits of the assay
Vero E6 [12] = assay: as above
HepG2 [13] = assay: as above
Caco-2 [14] = assay: as above
Calu-3 [15] = assay: as above

| SMILES | cell viability (U2OS [1]; 1 nM) [%] | cell viability (U2OS [1]; 10 nM) [%] | cell viability (U2OS [1]; 100 nM) [%] | cell viability (U2OS [1]; 1000 nM) [%] | cell viability (U2OS [1]; 10000 nM) [%] | cell viability (Vero E6 [2]; 1 nM) [%] | cell viability (Vero E6 [2]; 10 nM) [%] | cell viability (Vero E6 [2]; 100 nM) [%] | cell viability (Vero E6 [2]; 1000 nM) [%] | cell viability (Vero E6 [2]; 10000 nM) [%] | cell viability (HepG2 [3]; 1 nM) [%] | cell viability (HepG2 [3]; 10 nM) [%] | cell viability (HepG2 [3]; 100 nM) [%] | cell viability (HepG2 [3]; 1000 nM) [%] | cell viability (HepG2 [3]; 10000 nM) [%] | cell viability (Caco-2 [4]; 1 nM) [%] | cell viability (Caco-2 [4]; 10 nM) [%] | cell viability (Caco-2 [4]; 100 nM) [%] | cell viability (Caco-2 [4]; 1000 nM) [%] | cell viability (Caco-2 [4]; 10000 nM) [%] | cell viability (Calu-3 [5]; 1 nM) [%] | cell viability (Calu-3 [5]; 10 nM) [%] | cell viability (Calu-3 [5]; 100 nM) [%] | cell viability (Calu-3 [5]; 1000 nM) [%] | cell viability (Calu-3 [5]; 10000 nM) [%] | relative viability EC50 (U2OS [6]) [µM] | relative viability EC50 (Vero E6 [7]) [µM] | relative viability EC50 (HepG2 [8]) [µM] | relative viability EC50 (Caco-2 [9]) [µM] | relative viability EC50 (Calu-3 [10]) [µM] | drug sensitivity score (U2OS [11]) | drug sensitivity score (Vero E6 [12]) | drug sensitivity score (HepG2 [13]) | drug sensitivity score (Caco-2 [14]) | drug sensitivity score (Calu-3 [15]) |
| --- | --- | --- | --- | --- | --- | --- | --- | --- | --- | --- | --- | --- | --- | --- | --- | --- | --- | --- | --- | --- | --- | --- | --- | --- | --- | --- | --- | --- | --- | --- | --- | --- | --- | --- | --- |
| C=CCN1C[C@H](C(=O)N(CCCN(C)C)C(=O)NCC)C[C@@H]2c3cccc4[nH]cc(c34)C[C@H]21 [cabergoline] | 101 | 100 | 96.5 | 101 | 103 | 103 | 98 | 88.9 | 96.1 | 95.7 | 89.3 | 95.2 | 106 | 92.8 | 90.7 | 108 | 95.2 | 83 | 89 | 89.5 | 106 | 99.7 | 97.1 | 107 | 99.4 | > 10 | > 10 | > 10 | > 10 | > 10 | 0 | 0 | 0 | 4 | 0 |
| C=C1CC[C@H](O)C/C1=C/C=C1\CCC[C@]2(C)[C@@H]([C@H](C)CCCC(C)(C)O)CC[C@@H]12 [calcifediol] | 106 | 97.5 | 105 | 98.1 | 95 | 98.9 | 95 | 98.1 | 97.3 | 97 | 92.6 | 103 | 97.1 | 103 | 101 | 107 | 90.2 | 107 | 92.3 | 91.8 | 98.2 | 91.4 | 78.8 | 103 | 107 | > 10 | > 10 | > 10 | > 10 | > 10 | 0 | 0 | 0 | 0 | 0 |
| CO/N=C(\C(=O)N[C@@H]1C(=O)N2C(C(=O)OCOC(=O)C(C)(C)C)=C(/C=C\c3scnc3C)CS[C@H]12)c1csc(N)n1 [cefditoren-pivoxil] | 103 | 108 | 103 | 96.6 | 100 | 94.7 | 98.9 | 94.2 | 92.7 | 91.9 | 91 | 99.7 | 97.3 | 103 | 84.2 | 104 | 97.5 | 105 | 99.1 | 90.9 | 96.9 | 105 | 86.3 | 101 | 106 | > 10 | > 10 | > 10 | > 10 | > 10 | 0 | 0 | 0.2 | 0 | 0 |
| CO[C@@]1(NC(=O)C2SC(=C(C(N)=O)C(=O)O)S2)C(=O)N2C(C(=O)O)=C(CSc3nnnn3C)CS[C@@H]21 (stereo not given in full) [cefotetan] | 98.3 | 99.6 | 98.5 | 99.8 | 96.1 | 105 | 104 | 103 | 98.2 | 99.9 | 108 | 89.7 | 99.1 | 100 | 103 | 92.4 | 95.3 | 93.6 | 95.9 | 101 | 109 | 94.1 | 108 | 105 | 103 | > 10 | > 10 | > 10 | > 10 | > 10 | 0 | 0 | 0 | 0 | 0 |
| CC(=O)OCC1=C(C(=O)O)N2C(=O)[C@@H](NC(=O)CSc3ccncc3)[C@H]2SC1 [cephapirin] | 96.6 | 99.6 | 93.8 | 94.6 | 104 | 95.6 | 98 | 95.6 | 97.1 | 102 | 104 | 91.1 | 102 | 93.3 | 103 | 93.9 | 109 | 94.8 | 97.6 | 96.1 | 98.9 | 92.3 | 90.9 | 101 | 97.7 | > 10 | > 10 | > 10 | > 10 | > 10 | 0 | 0 | 0 | 0 | 0 |
| Cc1nc(C)c(C)nc1C [chuanxiongzine] | 98.5 | 102 | 98.6 | 101 | 95.7 | 104 | 97.1 | 104 | 104 | 105 | 105 | 88.9 | 97.1 | 92 | 97.3 | 110 | 105 | 95.7 | 112 | 105 | 105 | 106 | 89.9 | 101 | 84.8 | > 10 | > 10 | > 10 | > 10 | > 10 | 0 | 0 | 0 | 0 | 0.2 |
| O=C1CCc2cc(OCCCCc3nnnn3C3CCCCC3)ccc2N1 [cilostazol] | 93.2 | 96.9 | 94 | 96.5 | 95 | 91.5 | 99 | 96.9 | 101 | 95.7 | 114 | 99.9 | 110 | 99.4 | 92.6 | 97.5 | 104 | 99.7 | 101 | 90.3 | 94.3 | 107 | 99.1 | 115 | 111 | > 10 | > 10 | > 10 | > 10 | > 10 | 0 | 0 | 0 | 0 | 0 |
| CCC(CC)(CC(=O)Nc1cccc(/C=C/c2nc(C3CCC3)cs2)c1)C(=O)O [cinalukast] | 102 | 96.7 | 107 | 99.4 | 103 | 101 | 109 | 101 | 98.2 | 96.6 | 97.4 | 108 | 106 | 91.9 | 95.7 | 99.2 | 97.1 | 102 | 96.9 | 90.7 | 98.9 | 89.9 | 88.1 | 88.4 | 101 | > 10 | > 10 | > 10 | > 10 | > 10 | 0 | 0 | 0 | 0 | 0 |
| CN(C)CCCSc1ccccc1NC(=O)/C=C/c1ccccc1 [cinanserin] | 108 | 99.6 | 98.5 | 97.2 | 97.6 | 99.4 | 99.9 | 97 | 101 | 87.9 | 94.3 | 94.1 | 101 | 102 | 85.8 | 92.4 | 95 | 94.4 | 97.3 | 102 | 108 | 98.6 | 98.1 | 90.7 | 98.9 | > 10 | > 10 | > 10 | > 10 | > 10 | 0 | 0 | 0.1 | 0 | 0 |
| COc1cc(/C=C/C(=O)N2CCN(CC(=O)N3CCCC3)CC2)cc(OC)c1OC [cinepazide] | 92.6 | 97.5 | 92.1 | 100 | 95.6 | 98.5 | 98.1 | 102 | 100 | 98.6 | 101 | 96.9 | 90.8 | 98.2 | 96.1 | 96.4 | 105 | 94.9 | 103 | 91.3 | 104 | 96 | 95.8 | 94 | 101 | > 10 | > 10 | > 10 | > 10 | > 10 | 0 | 0 | 0 | 0 | 0 |
| CC(C)(Oc1ccc(Cl)cc1)C(=O)O [clofibric-acid] | 101 | 95.1 | 99.9 | 94.9 | 99.2 | 102 | 101 | 97.7 | 93.3 | 94.2 | 93.7 | 106 | 95.6 | 105 | 96.2 | 95.5 | 96.6 | 101 | 99.3 | 99.1 | 94.2 | 96.5 | 100 | 92.5 | 96.2 | > 10 | > 10 | > 10 | > 10 | > 10 | 0 | 0 | 0 | 0 | 0 |
| Oc1ccc(Cl)c2cccnc12 [cloxyquin] | 94.4 | 99.3 | 99.4 | 99.8 | 97.4 | 99.7 | 105 | 99.9 | 101 | 97.7 | 102 | 98.9 | 116 | 93.4 | 88.2 | 96.1 | 98.1 | 104 | 96.9 | 95 | 87.9 | 100 | 96 | 106 | 105 | > 10 | > 10 | > 10 | > 10 | > 10 | 0 | 0 | 0.3 | 0 | 0 |
| NS(=O)(=O)c1cc2c(cc1Cl)NC(C1CC3C=CC1C3)NS2(=O)=O (stereo not given) [cyclothiazide] | 93.7 | 95.2 | 99.9 | 94.3 | 97.7 | 94.4 | 102 | 91.2 | 92.5 | 105 | 90.8 | 104 | 88.9 | 99.9 | 93.8 | 92.4 | 89 | 103 | 81.8 | 91.2 | 101 | 96.7 | 95.3 | 112 | 100 | > 10 | > 10 | > 10 | > 10 | > 10 | 0 | 0 | 0 | 0 | 0 |
| O=c1ccc2ccc(O)c(O)c2o1 [daphnetin] | 111 | 108 | 101 | 102 | 99.4 | 106 | 100 | 98.3 | 93 | 101 | 102 | 105 | 87.3 | 87.5 | 82.1 | 105 | 105 | 104 | 107 | 90.5 | 101 | 111 | 102 | 99.9 | 110 | > 10 | > 10 | > 10 | > 10 | > 10 | 0 | 0 | 3.3 | 0 | 0 |
